Laboratory results reported in publication PMC12057046, “Elucidation of short linear motif-based interactions of the MIT and rhodanese domains of the ubiquitin-specific protease 8” (Biology Direct, 2025).

Test system: USP8 MIT domain
Test: Peptide-phage display-based deep mutational scanning (DMS), USP8 MIT domain
Type: binding, human
Details: bait USP8_MIT__P40818_1_142; EFCAB12 (Q6NXP0) 2-17; pair of mutant with wild-type wt_00016 (MDDDYEAYHSLFLSLL); sheet S3.B_ProP-PD_pairs
Protocol: The residues of these 16 amino acid-long wild-type peptides were substituted to all natural amino acid residues, except cysteine, in all positions (Supplementary Table S2A). The designed peptide sequences were reverse-translated to oligonucleotides optimized to the codon usage of E. coli. The required flanking regions (5´[…] and 3´[…]) were added for library construction. The library was generated as previously described.
Four rounds of phage selections were carried out using the second generation human disorderome library or the constructed deep mutational scanning library. At least three individual replicates were used for each bait protein. 10 µg of GST-tagged proteins or GST control (diluted in PBS from the stock of proteins kept in the purification elution buffer) were immobilized in 100 µL PBS on a 96-well MaxiSorp (Nunc) plate overnight at 4 °C. The plates were incubated with blocking buffer (with 0.5% BSA in PBS) for 1 h at 4 °C followed by washing with 0.05% Tween 20 in PBS four times. The naïve phage library (10^11 CFU) was diluted in 1/5th volume PEG/NaCl (20% PEG-8000, 0.4 M NaCl) and 1X PBS, incubated on ice for 10 min and centrifuged at 10,000 [drawing 3] g for 10 min. The pellet was resuspended in the volume of PBS (100 µL/ well). The GST-coated control plate was incubated with 100 µL library per well in PBS for 1 h at 4 °C to remove non-specific binders. The supernatant was transferred to the target wells and incubated for 2 h at 4 °C. The wells were washed five times with 0.05% Tween 20 in PBS and the bound phages were eluted with 100 µL per well log-phase E. coli OmniMAX by incubating at 37° C while shaking. After 30 min, M13KO7 helper phages were added and incubated for an additional 45 min. The bacterial cultures were transferred to 1 mL 2YT supplemented with 100 µg/mL carbenicillin, 30 µg/mL kanamycin and 0.3 mM IPTG and grew overnight at 37 °C while shaking. The following day the cultures were centrifuged for 10 min at 2,000 [drawing 4] g, 4 °C. 1/10th volume of 10 [drawing 5] PBS was added to adjust the pH and heated at 65 °C for 10 min. The phage pools from each round were used as in-phages for the next round of selections.
The samples were prepared for NGS as previously described. Peptide-coding regions of the enriched phage pools were amplified and barcoded using Phusion High-Fidelity PCR Master Mix (Thermo Fisher) for 22 cycles and confirmed by 2% agarose gel electrophoresis. The PCR products were normalized with 25 µL Mag-bind Total Pure NGS beads (Omega Biotek) and 10 µL of each eluted sample (Qiagen Elution Buffer) was pooled and cleaned-up with a PCR purification kit (Qiagen). The PCR product was confirmed by 2% agarose electrophoresis and the band was extracted with QIAquick Gel extraction Kit (Qiagen) and eluted with 30 µL TE buffer. The dsDNA was quantified using QuantiT PicoGreen dsDNA Assay Kit (Thermo Fisher) and sent for NGS (Illumina MiSeq v3, 1 × 150 bp read setup, 20% PhiX, NGI SciLifeLab facility, Sweden). The NGS data were demultiplexed, adapter regions were trimmed and sequences with an average quality of at least 20 were translated to peptide sequences. The NGS data were analysed using custom Python scripts. The total read NGS counts for each selection experiment of each peptide sequence were compiled and annotated in PepTools (https://slim.icr.ac.uk/tools/peptools/). Since ProP-PD is in essence a competition assay, the possibility of the input phage library influencing the selection outcome was explored. For this, the Pearson correlation coefficient, p-value and coefficient of determination were calculated for all peptide NGS count fractions in the library coverage vs. in the selections results (Supplementary Fig. S7; Supplementary Table S2B; Supplementary Table S3B; Supplementary Table S7B). Pearson correlation coefficient and p-value were calculated using Python’s SciPy library. […]

Sequence | hit_pair_ratio
TDDDYEAYHSLFLSLL [mut_04335] | 30.76
VDDDYEAYHSLFLSLL [mut_04336] | 42.24
WDDDYEAYHSLFLSLL [mut_04337] | 1.74
YDDDYEAYHSLFLSLL [mut_04338] | 1.04

Same assay, conditions: bait USP8_MIT__P40818_1_142; MLPH 482-497; ratio of averaged fractions of wild-type/mutant peptide pair, larger over smaller (direction to be read from the two fractions)

Sequence | hit_pair_ratio
SEVSDIESRIAALRAY | 1.28
SEVSDIESRIAALREA | 7.79
SEVSDIESRIAALRMA | 17.19
SEVSDIESRIAALRNA | 7.79
SEVSDIESRIAALRWA | 7.79
SEVSDIESRIAALRYA | 7.79
SEVSDIESRIAALTAA | 7.79
SEVSDIESRIAALVAA | 18.10
SEVSDIESRIAASRAA | 1.95
SEVSDIESRIAATRAA | 7.79
SEVSDIESRIAAWRAA | 2.60
SEVSDIESRIAELRAA | 1.95
SEVSDIESRIALLRAA | 1.95
SEVSDIESRIAMLRAA | 1.77
SEVSDIESRIAVLRAA | 2.60
SEVSDIESRIDALRAA | 7.79
SEVSDIESRIEALRAA | 2.26
SEVSDIESRIKALRAA | 3.89
SEVSDIESRIMALRAA | 6.39
SEVSDIESRINALRAA | 7.79

Sequence | hit_pair_ratio
SEVSDIESRISALRAA | 1.49
SEVSDIESRKAALRAA | 7.79
SEVSDIESRQAALRAA | 2.60
SEVSDIKSRIAALRAA | 3.89
SEVSDISSRIAALRAA | 1.56
SEVSDITSRIAALRAA | 1.11
SEVSDRESRIAALRAA | 2.60
SEVSDTESRIAALRAA | 3.89
SEVSDVESRIAALRAA | 7.79
SEVSDYESRIAALRAA | 2.23
SEVSEIESRIAALRAA | 1.80
SEVSHIESRIAALRAA | 7.79
SEVSNIESRIAALRAA | 3.89
SEVSYIESRIAALRAA | 7.79
SEVVDIESRIAALRAA | 12.32
SEVWDIESRIAALRAA | 1.49
SEVYDIESRIAALRAA | 346.56
SEWSDIESRIAALRAA | 1.11
SEYSDIESRIAALRAA | 1.74

Same assay, conditions: sheet S3.B_ProP-PD_pairs; bait USP8_MIT__P40818_1_142; ratio within the wild-type/mutant pair, larger over smaller averaged fraction (direction from fraction_wt and fraction_mut)

Sequence | hit_pair_ratio
SHVSDIESRIAALRAA | 1.51
SKVSDIESRIAALRAA | 3.89
SLVSDIESRIAALRAA | 1.11
SMVSDIESRIAALRAA | 7.79
SNVSDIESRIAALRAA | 1.35
SPVSDIESRIAALRAA | 1.56
SQVSDIESRIAALRAA | 1.00
SRVSDIESRIAALRAA | 3.31
SSVSDIESRIAALRAA | 24.28
SVVSDIESRIAALRAA | 2.60
SYVSDIESRIAALRAA | 1.00
TEVSDIESRIAALRAA | 6.74
VEVSDIESRIAALRAA | 3.36
WEVSDIESRIAALRAA | 13.49
YEVSDIESRIAALRAA | 4.18

Test system: USP8 MIT domain
Test: Proteomic peptide-phage display (ProP-PD) selection against USP8 MIT domain
Type: binding, human
Set-up: Confidence: scale not given here
Details: ProP-PD, human disorderome library, GST-tagged MIT bait, four rounds of selection; percent of NGS counts associated with each peptide, Fig. 1B
Protocol: We explored the peptide-binding of the USP8 MIT domain by using the purified GST-tagged MIT domain as bait in proteomic peptide-phage display (ProP-PD) selections and a library designed to display the predicted unstructured regions of the human proteome. The peptide-coding regions of the binding-enriched phage pools were analysed by next-generation sequencing (NGS). After filtering for high confidence ligands, ten ligands remained (Fig. 1B; Supplementary Table S1). None of the ten identified protein-protein interactions had been previously reported, based on comparison with the information available in IntAct, HIPPIE and BioGrid (February 2025). Of the USP8 interacting proteins found, the D site-binding protein (DBP), which is a clock-controlled transcription factor, appears as an interesting ligand as USP8 has been reported to be involved in controlling the circadian rhythm. Also, the CCDC88A-encoded protein Girdin is an interactor of potential biological relevance as it is a scaffolding protein involved in the EGFR pathway which USP8 is known to regulate. At the motif level, there was no shared consensus motif among the ten peptide ligands. However, by manual inspection we noticed that four of the peptides contained a shared [LI]xxR[IY]xxL sequence, which appears to be a variation of the [DE]xxLxxRLxxL[KR] MIM1 motif described in the Eukaryotic Linear Motif resource (ELM) (Fig. 1B). We performed a SPOT array alanine scanning analysis in which peptides are synthesised on a membrane, and where each amino acid position of the peptide is mutated to alanine (or glycine if alanine is in the wild type peptide) to evaluate the effect of the amino acid residues in binding. We tested two peptides containing the apparent MIM1-like motif, one from Girdin (Girdin1192 − 1207) and one from the histone-lysine N-methyltransferase SETD1B (SETD1B492 − 507). […] AlphaFold3 (AF3) modelling of the four peptides with the variant MIM1 motif and the MIT domain docked the peptides with high confidence (ipTM scores: HIVEP1_741 − 756: 0.87, Girdin1192 − 1207: 0.85, MLPH481 − 496: 0.82, SETD1B492 − 507: 0.75) at the expected MIM1 binding pocket (Fig. 1D). […] However, the USP8 MIT selection was dominated (more than 94% of NGS counts) by two peptides that lack an apparent MIM1 motif. The two peptides were from the EF-hand calcium-binding domain-containing protein 12 (EFCAB12_1 − 16: […]) and from DBP (DBP116 − 131: […]) (Fig. 1B). […] In comparison to this, the EFCAB12_1 − 16 peptide shares a potential Dx[YF]xxxH[SG] motif with the DBP116 − 131 (Fig. 1B). […] The AF3 model of DBP116 − 131 peptide supports the interaction of D120 of the DBP116 − 131 peptide with the residues K74 and N71 in the MIT domain (Fig. 1G), emphasizing the significance of the aspartic acid at this position. […] Of them, two peptides (SYNE2_853 − 868 and PKNOX1_56 − 71) where placed in the same binding site as the Girdin and DBP peptides with high confidences by AF3 modelling (ipTM 0.92 and 0.74; Supplementary Fig. S3).
Four rounds of phage selections were carried out using the second generation human disorderome library or the constructed deep mutational scanning library. At least three individual replicates were used for each bait protein. 10 µg of GST-tagged proteins or GST control (diluted in PBS from the stock of proteins kept in the purification elution buffer) were immobilized in 100 µL PBS on a 96-well MaxiSorp (Nunc) plate overnight at 4 °C. The plates were incubated with blocking buffer (with 0.5% BSA in PBS) for 1 h at 4 °C followed by washing with 0.05% Tween 20 in PBS four times. The naïve phage library (10^11 CFU) was diluted in 1/5th volume PEG/NaCl (20% PEG-8000, 0.4 M NaCl) and 1X PBS, incubated on ice for 10 min and centrifuged at 10,000 [drawing 3] g for 10 min. The pellet was resuspended in the volume of PBS (100 µL/ well). […]

Sequence | NGS counts (%)
HRRVRTEGKESSSASR [CACNA1E, Voltage-dependent R-type calcium channel subunit alpha-1E peptide 923-938] | 0.87

Same assay, conditions: Total NGS counts

Sequence | max_counts
HDSLDSRIEMLLKEQR [SETD1B 496-511, Histone-lysine N-methyltransferase SETD1B peptide, overlapping] | 7
HRRVRTEGKESSSASR [CACNA1E, Voltage-dependent R-type calcium channel subunit alpha-1E peptide 923-938] | 96

Same assay, conditions: calculated based on four metrics: overlapping peptides, replicated peptides, motif match, peptide counts

Sequence | Confidence
HDSLDSRIEMLLKEQR [SETD1B 496-511, Histone-lysine N-methyltransferase SETD1B peptide, overlapping] | 2
HRRVRTEGKESSSASR [CACNA1E, Voltage-dependent R-type calcium channel subunit alpha-1E peptide 923-938] | 2

Same assay, conditions: fraction of NGS counts for a selection

Sequence | Counts
HDSLDSRIEMLLKEQR [SETD1B 496-511, Histone-lysine N-methyltransferase SETD1B peptide, overlapping] | 0.0001221
HRRVRTEGKESSSASR [CACNA1E, Voltage-dependent R-type calcium channel subunit alpha-1E peptide 923-938] | 0.001177

Same assay, conditions: number of baits selections where the peptide has been observed, calculated on the domain level

Sequence | Promiscuity
HDSLDSRIEMLLKEQR [SETD1B 496-511, Histone-lysine N-methyltransferase SETD1B peptide, overlapping] | 1
HRRVRTEGKESSSASR [CACNA1E, Voltage-dependent R-type calcium channel subunit alpha-1E peptide 923-938] | 3

Same assay, conditions: number of screens against the bait protein in which the peptide has been found

Sequence | Replicates
HDSLDSRIEMLLKEQR [SETD1B 496-511, Histone-lysine N-methyltransferase SETD1B peptide, overlapping] | 3
HRRVRTEGKESSSASR [CACNA1E, Voltage-dependent R-type calcium channel subunit alpha-1E peptide 923-938] | 2

Same assay, conditions: proportion for the current bait of the total NGS read counts of the peptide for all baits screened with this library

Sequence | Specificity
HDSLDSRIEMLLKEQR [SETD1B 496-511, Histone-lysine N-methyltransferase SETD1B peptide, overlapping] | 1
HRRVRTEGKESSSASR [CACNA1E, Voltage-dependent R-type calcium channel subunit alpha-1E peptide 923-938] | 0.7101
